These compounds were tested against T1, CDK12 (Homo sapiens, UniProt Q9NYV4) (assay: Radiometric protein kinase assay (33PanQinase), assay condition 1, thiol-free conditions). Settings: thiol-free conditions (1 mM TCEP), ATP at apparent Km.
T1 construct: ProQinase (named as the party running the assay)
Assay type: biochemical
Description: Example 2 —Assay condition 1 (thiol-free conditions)
The IC50 profile of compounds was determined using protein kinase in a customized, thiol free assay. IC50 values were measured by testing 10 concentrations (1×10^−05 M to 3×10^−10 M) of each test compound in singlicate against each kinase of interest. Prior to testing, the 1×10^−03M stock solutions in column 2 of the master plates were subjected to a serial, semi-logarithmic dilution using 100% DMSO as a solvent. […] Column 1 and 7 were filled with 100% DMSO as controls. Subsequently, 2×10 microliter from each well of the serial diluted copy plates were aliquoted with a 96 channel pipettor into two identical sets of “compound dilution plates”. All plates were barcoded for automated identification and tracking purposes. IC50 values were measured by testing 10 concentrations (1×10^−05 M to 3×10^−10 M) of each compound in singlicate. All compounds were stored as powder until being solubilized in DMSO. Solubilized compounds were stored as 1×10^−02 M/100% DMSO stock solutions. Prior to the assay process, 90 microliters of H2O were added to each well of a set of compound dilution plates. To minimize potential precipitation, the H2O was added to each plate only a few minutes before the transfer of the compound solutions into the assay plates. Each plate was shaken thoroughly, resulting in compound dilution plates with a final of 10% DMSO. For each assay, 5 microliters of solution from each well of the compound dilution plates/10% DMSO were transferred into the assay plate. The final volume of the assay was 50 μl. All compounds were tested at 10 final assay concentrations in the range from 1×10^−05 M to 3×10^−10 M, in singlicate. The final DMSO concentration in the reaction cocktails was 1% in all cases. A radiometric protein kinase assay (33PanQinase® Activity Assay) was used for measuring the kinase activity of the protein kinase. All kinase assays were performed in 96-well FlashPlates™ from PerkinElmer (Boston, Mass., USA) in a 50 microliter reaction volume. The reaction cocktail was pipetted in four steps in the following order: 20 microliter of assay buffer (standard buffer) 5 microliter of ATP solution (in H2O) 5 microliter of test compound (in 10% DMSO) 20 microliter enzyme/subtrate mix. Each assay for the protein kinase contained 70 mM HEPES-NaOH pH 7.5, 3 mM MgCl2, 3 mM MnCl2, 3 microM Na-orthovanadate, 1 mM TCEP, 50 μg/ml PEG20000, ATP (corresponding to the apparent ATP-Km of the kinase, see Table A), [gamma-33P]-ATP (approx. 6×10×E5 cpm per well), with the protein kinase and relevant substrate being used in pre-determined amounts, depending on the kinase in question. For all experiments labeled as “Thiol-free”, all glutathione was exchanged from protein preparations so as to be removed from the assay and final buffer conditions contained no thiol- containing reagents. This was done so there would be no interference with the key cysteines in the proteins of interest.
For data analysis, the median value of the counts in column 1 (n=8) of each assay plate was defined as “low control”. This value reflects unspecific binding of radioactivity to the plate in the absence of a protein kinase but in the presence of the substrate. The median value of the counts in column 7 of each assay plate (n=8) was taken as the “high control”, i.e. full activity in the absence of any inhibitor. The difference between high and low control was taken as 100% activity. As part of the data evaluation the low control value from a particular plate was subtracted from the high control value as well as from all 80 “compound values” of the corresponding plate. The residual activity (in %) for each well of a particular plate was calculated by using the following formula:
Res. Activity (%)=100×[(cpm of compound−low control)/(high control−low control)] […]

T1 sequence (Q9NYV4 whole entry): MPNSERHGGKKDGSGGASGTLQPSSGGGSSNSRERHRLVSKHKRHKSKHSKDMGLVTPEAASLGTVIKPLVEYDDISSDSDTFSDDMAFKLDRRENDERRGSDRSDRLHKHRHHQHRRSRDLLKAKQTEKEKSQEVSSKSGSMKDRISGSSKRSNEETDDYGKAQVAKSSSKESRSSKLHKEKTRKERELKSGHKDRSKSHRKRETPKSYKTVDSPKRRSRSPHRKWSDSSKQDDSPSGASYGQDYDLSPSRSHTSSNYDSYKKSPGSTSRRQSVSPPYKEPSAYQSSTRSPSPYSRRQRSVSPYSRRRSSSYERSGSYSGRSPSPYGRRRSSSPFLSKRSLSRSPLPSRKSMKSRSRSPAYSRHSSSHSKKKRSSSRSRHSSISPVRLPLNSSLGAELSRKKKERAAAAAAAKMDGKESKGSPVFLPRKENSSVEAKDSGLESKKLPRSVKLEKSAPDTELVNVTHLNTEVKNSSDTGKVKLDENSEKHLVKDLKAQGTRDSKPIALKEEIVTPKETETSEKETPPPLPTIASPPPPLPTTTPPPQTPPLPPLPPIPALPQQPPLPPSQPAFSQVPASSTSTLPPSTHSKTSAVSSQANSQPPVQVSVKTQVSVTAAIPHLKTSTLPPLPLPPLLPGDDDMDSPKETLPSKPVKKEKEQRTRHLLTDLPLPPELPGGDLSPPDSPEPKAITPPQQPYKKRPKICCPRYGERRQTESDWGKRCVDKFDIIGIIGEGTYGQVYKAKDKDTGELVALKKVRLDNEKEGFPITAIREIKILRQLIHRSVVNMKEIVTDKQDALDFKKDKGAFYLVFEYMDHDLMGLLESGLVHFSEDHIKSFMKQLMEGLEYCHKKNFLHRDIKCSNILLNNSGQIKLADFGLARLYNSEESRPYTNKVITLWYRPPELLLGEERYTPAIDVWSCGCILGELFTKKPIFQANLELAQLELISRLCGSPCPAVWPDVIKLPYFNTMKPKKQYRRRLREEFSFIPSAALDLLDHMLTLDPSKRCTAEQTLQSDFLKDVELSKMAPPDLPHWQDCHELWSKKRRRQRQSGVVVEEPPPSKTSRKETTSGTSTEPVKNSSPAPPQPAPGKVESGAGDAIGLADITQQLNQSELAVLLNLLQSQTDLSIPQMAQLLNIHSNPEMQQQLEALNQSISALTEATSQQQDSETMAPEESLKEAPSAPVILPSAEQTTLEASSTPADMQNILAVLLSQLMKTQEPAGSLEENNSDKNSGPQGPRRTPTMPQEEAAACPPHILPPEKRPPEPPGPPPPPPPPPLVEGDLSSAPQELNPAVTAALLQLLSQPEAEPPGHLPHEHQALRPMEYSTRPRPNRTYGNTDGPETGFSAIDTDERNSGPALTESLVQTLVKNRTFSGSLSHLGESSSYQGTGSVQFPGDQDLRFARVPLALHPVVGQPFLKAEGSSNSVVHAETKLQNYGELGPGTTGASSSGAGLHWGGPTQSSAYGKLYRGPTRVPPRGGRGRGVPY
T1 sequence (O75909 whole entry partner): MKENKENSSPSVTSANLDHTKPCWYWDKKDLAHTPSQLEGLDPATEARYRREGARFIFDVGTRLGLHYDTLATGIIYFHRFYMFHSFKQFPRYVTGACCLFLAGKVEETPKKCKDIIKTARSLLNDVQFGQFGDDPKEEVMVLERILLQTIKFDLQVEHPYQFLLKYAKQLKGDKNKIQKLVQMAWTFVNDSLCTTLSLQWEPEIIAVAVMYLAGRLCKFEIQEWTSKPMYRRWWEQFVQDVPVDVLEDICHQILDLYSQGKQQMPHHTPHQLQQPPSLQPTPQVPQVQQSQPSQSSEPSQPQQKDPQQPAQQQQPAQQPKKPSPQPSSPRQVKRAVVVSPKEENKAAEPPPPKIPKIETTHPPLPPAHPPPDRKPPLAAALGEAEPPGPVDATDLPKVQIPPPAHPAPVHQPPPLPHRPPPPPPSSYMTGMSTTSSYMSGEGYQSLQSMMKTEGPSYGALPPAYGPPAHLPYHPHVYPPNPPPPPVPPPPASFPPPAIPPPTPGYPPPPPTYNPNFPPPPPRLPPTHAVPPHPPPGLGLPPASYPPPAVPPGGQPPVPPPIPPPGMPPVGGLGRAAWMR

C=CC(=O)Nc1ccc2c(N3CC[C@@H](Nc4ncc(Cl)cn4)C3)ncnc2c1 [Example 1, (R)-N-(4-(3-((5-chloropyrimidin-2-yl)amino)pyrrolidin-1-yl)quinazolin-7-yl)acrylamide] and C=CC(=O)Nc1ccc2c(N3CC[C@@H](Nc4ncc(Br)cn4)C3)ncnc2c1 [Example 25, (R)-N-(4-(3-((5-bromopyrimidin-2-yl)amino)pyrrolidin-1-yl)quinazolin-7-yl)acrylamide] cannot be ordered by IC50: 0.1 to 1 µM for the first, no more than 0.1 µM for the second.

C=CC(=O)Nc1ccc2c(N3CC[C@@H](Nc4ncc(C(F)(F)F)cn4)C3)ncnc2c1 [Example 2, (R)-N-(4-(3-((5-(trifluoromethyl)pyrimidin-2-yl)amino)pyrrolidin-1-yl)quinazolin-7-yl)acrylamide] and C=CC(=O)Nc1ccc2c(N3CC[C@@H](Nc4ncc(C(F)(F)F)c(N)n4)C3)ncnc2c1 [Example 6, (R)-N-(4-(3-((4-amino-5-(trifluoromethyl)pyrimidin-2-yl)amino)pyrrolidin-1-yl)quinazolin-7-yl)acrylamide] cannot be ordered by IC50: no more than 0.1 µM for the first, no more than 0.1 µM for the second.

C=CC(=O)Nc1ccc2c(N3CC[C@@H](Nc4ncc(Cl)c(OCC)n4)C3)ncnc2c1 [Example 3, (R)-N-(4-(3-((5-chloro-4-ethoxypyrimidin-2-yl)amino)pyrrolidin-1-yl)quinazolin-7-yl)acrylamide] and C=CC(=O)Nc1ccc2c(N3CC[C@@H](Nc4ncc(Cl)c(OC)n4)C3)ncnc2c1 [Example 4, (R)-N-(4-(3-((5-chloro-4-methoxypyrimidin-2-yl)amino)pyrrolidin-1-yl)quinazolin-7-yl)acrylamide] cannot be ordered by IC50: no more than 0.1 µM for the first, no more than 0.1 µM for the second.

C=CC(=O)Nc1ccc2c(N3CC[C@@H](Nc4ncc(Br)c(OC)n4)C3)ncnc2c1 [Example 5, (R)-N-(4-(3-((5-bromo-4-methoxypyrimidin-2-yl)amino)pyrrolidin-1-yl)quinazolin-7-yl)acrylamide] and C=CC(=O)Nc1ccc2c(N3CC[C@@H](Nc4ncc(Cl)c(NC)n4)C3)ncnc2c1 [Example 14, (R)-N-(4-(3-((5-chloro-4-(methylamino)pyrimidin-2-yl)amino)pyrrolidin-1-yl)quinazolin-7-yl)acrylamide] cannot be ordered by IC50: no more than 0.1 µM for the first, no more than 0.1 µM for the second.

C=CC(=O)Nc1ccc2c(N3CC[C@@H](Nc4ncc(Cl)c(Oc5ccccc5)n4)C3)ncnc2c1 [Example 7, (R)-N-(4-(3-((5-chloro-4-phenoxypyrimidin-2-yl)amino)pyrrolidin-1-yl)quinazolin-7-yl)acrylamide] and C=CC(=O)Nc1ccc2c(N3CC[C@@H](Nc4ncc5ccccc5n4)C3)ncnc2c1 [Example 13, (R)-N-(4-(3-(quinazolin-2-ylamino)pyrrolidin-1-yl)quinazolin-7-yl)acrylamide] cannot be ordered by IC50: 0.1 to 1 µM for the first, no more than 0.1 µM for the second.

C=CC(=O)Nc1ccc2c(N3CC[C@@H](Nc4ncc5cc(F)ccc5n4)C3)ncnc2c1 [Example 8, (R)-N-(4-(3-((6-fluoroquinazolin-2-yl)amino)pyrrolidin-1-yl)quinazolin-7-yl)acrylamide] and C=CC(=O)Nc1ccc2c(N3CC[C@@H](Nc4ncc5ccncc5n4)C3)ncnc2c1 [Example 16, (R)-N-(4-(3-(pyrido [3,4-d]pyrimidin-2-ylamino)pyrrolidin-1-yl)quinazolin-7-yl)acrylamide] cannot be ordered by IC50: no more than 0.1 µM for the first, no more than 0.1 µM for the second.

C=CC(=O)Nc1ccc2c(N3CC[C@@H](Nc4ncc(Cl)c(C(F)(F)F)n4)C3)ncnc2c1 [Example 9, (R)-N-(4-(3-((5-chloro-4-(trifluoromethyl)pyrimidin-2-yl)amino)pyrrolidin-1-yl)quinazolin-7-yl)acrylamide] and C=CC(=O)Nc1ccc2c(N3CC[C@@H](Nc4ncc(C(F)(F)F)c(NC)n4)C3)ncnc2c1 [Example 15, (R)-N-(4-(3-((4-(methylamino)-5-(trifluoromethyl)pyrimidin-2-yl)amino)pyrrolidin-1-yl)quinazolin-7-yl)acrylamide] cannot be ordered by IC50: no more than 0.1 µM for the first, no more than 0.1 µM for the second.

C=CC(=O)Nc1ccc2c(N3CC[C@@H](Nc4ncc(C5CC5)cn4)C3)ncnc2c1 [Example 10, (R)-N-(4-(3-((5-cyclopropylpyrimidin-2-yl)amino)pyrrolidin-1-yl)quinazolin-7-yl)acrylamide] and C=CC(=O)Nc1ccc2c(N3CC[C@@H](Nc4ncc(C#N)cn4)C3)ncnc2c1 [Example 12, (R)-N-(4-(3-((5-cyanopyrimidin-2-yl)amino)pyrrolidin-1-yl)quinazolin-7-yl)acrylamide] cannot be ordered by IC50: no more than 0.1 µM for the first, no more than 0.1 µM for the second.

C=CC(=O)Nc1ccc2c(N3CC[C@@H](Nc4ncc5sccc5n4)C3)ncnc2c1 [Example 11, (R)-N-(4-(3-(thieno [3,2-d]pyrimidin-2-ylamino)pyrrolidin-1-yl)quinazolin-7-yl)acrylamide] and C=CC(=O)Nc1ccc2c(N3CC[C@@H](Nc4ncc(Br)cn4)C3)nccc2c1 [Example 18, (R)-N-(1-(3-((5-bromopyrimidin-2-yl)amino)pyrrolidin-1-yl)isoquinolin-6-yl)acrylamide] cannot be ordered by IC50: no more than 0.1 µM for the first, no more than 0.1 µM for the second.

C=CC(=O)Nc1ccc2c(N3CC[C@@H](Nc4ncc(Cl)c(OCC)n4)C3)nccc2c1 [Example 19, (R)-N-(1-(3-((5-chloro-4-ethoxypyrimidin-2-yl)amino)pyrrolidin-1-yl)isoquinolin-6-yl)acrylamide] and C=CC(=O)Nc1ccc2c(N3CC[C@@H](Nc4ncc(C#N)cn4)C3)nccc2c1 [Example 26, (R)-N-(1-(3-((5-cyanopyrimidin-2-yl)amino)pyrrolidin-1-yl)isoquinolin-6-yl)acrylamide] cannot be ordered by IC50: no more than 0.1 µM for the first, no more than 0.1 µM for the second.

C=CC(=O)Nc1ccc2c(N3CC[C@@H](Nc4ncc(Br)cn4)C3)nc(N3CCOCC3)nc2c1 [Example 20, (R)-N-(4-(3-((5-bromopyrimidin-2-yl)amino)pyrrolidin-1-yl)-2-morpholinoquinazolin-7-yl)acrylamide] and C=CC(=O)Nc1ccc2c(N3CC[C@@H](Nc4ncc(C#N)cn4)C3)nc(N3CCOCC3)nc2c1 [Example 22, (R)-N-(4-(3-((5-cyanopyrimidin-2-yl)amino)pyrrolidin-1-yl)-2-morpholinoquinazolin-7-yl)acrylamide] cannot be ordered by IC50: no more than 0.1 µM for the first, 0.1 to 1 µM for the second.

C=CC(=O)Nc1ccc2c(N3CC[C@@H](Nc4ncc(Br)cn4)C3)nc(C)nc2c1 [Example 21, (R)-N-(4-(3-((5-bromopyrimidin-2-yl)amino)pyrrolidin-1-yl)-2-methylquinazolin-7-yl)acrylamide] and C=CC(=O)Nc1ccc2c(N3CC[C@@H](Nc4ncc(C#N)cn4)C3)nc(C)nc2c1 [Example 30, (R)—N-(4-(3-((5-cyanopyrimidin-2-yl)amino)pyrrolidin-1-yl)-2-methylquinazolin-7-yl)acrylamide] cannot be ordered by IC50: no more than 0.1 µM for the first, no more than 0.1 µM for the second.

C=CC(=O)Nc1ccc2c(N3CC[C@@H](Nc4ncc(C#N)cn4)C3)nc(N3CCN(C)CC3)nc2c1 [Example 24, (R)-N-(4-(3-((5-cyanopyrimidin-2-yl)amino)pyrrolidin-1-yl)-2-(4-methylpiperazin-1-yl)quinazolin-7-yl)acrylamide] and C=CC(=O)Nc1ccc2c(N3CC[C@@H](Nc4ncc(C#N)cn4)C3)nc(N3CCCC3)nc2c1 [Example 29, (R)—N-(4-(3-((5-cyanopyrimidin-2-yl)amino)pyrrolidin-1-yl)-2-(pyrrolidin-1-yl)quinazolin-7-yl)acrylamide] cannot be ordered by IC50: no more than 0.1 µM for the first, 0.1 to 1 µM for the second.

C=CC(=O)N(C)c1ccc2c(N3CC[C@@H](Nc4ncc(Br)cn4)C3)nccc2c1 [Example 27, (R)-N-(1-(3-((5-bromopyrimidin-2-yl)amino)pyrrolidin-1-yl)isoquinolin-6-yl)-N-methylacrylamide] and C/C=C/C(=O)Nc1ccc2c(N3CC[C@@H](Nc4ncc(Br)cn4)C3)nccc2c1 [Example 28, (R,E)-N-(1-(3-((5-bromopyrimidin-2-yl)amino)pyrrolidin-1-yl)isoquinolin-6-yl)but-2-enamide] cannot be ordered by IC50: no more than 0.1 µM for the first, no more than 0.1 µM for the second.
